Experimental data: US10758534B2 (Vertex Pharmaceuticals Incorporated, priority 2014, dated 2020)

What follows are molecules tested against T1, F508del (Homo sapiens, UniProt P13569, DEL508-508) (assay: Protocol 2: FRET membrane potential optical assay (VIPR), identification of correction compounds). Details: Table 3; compounds of Table 1 as modulators of CFTR activity; protocol not stated.
T1 construct: expressed in transfected cells
Format: cell-based
Excerpt: Membrane potential optical methods for assaying F508del modulation properties of compounds.
These voltage sensitive assays are based on the change in fluorescence resonant energy transfer (FRET) between the membrane-soluble, voltage-sensitive dye, DiSBAC2(3), and a fluorescent phospholipid, CC2-DMPE, which is attached to the outer leaflet of the plasma membrane and acts as a FRET donor. Changes in membrane potential (Vm) cause the negatively charged DiSBAC2(3) to redistribute across the plasma membrane and the amount of energy transfer from CC2-DMPE changes accordingly. The changes in fluorescence emission were monitored using VIPR™ II, which is an integrated liquid handler and fluorescent detector designed to conduct cell-based screens in 96- or 384-well microtiter plates.
To identify small molecules that correct the trafficking defect associated with F508del; a single-addition HTS assay format was developed. The cells were incubated in serum-free medium for 16 hrs at 37° C. in the presence or absence (negative control) of test compound. As a positive control, cells plated in 384-well plates were incubated for 16 hrs at 27° C. to “temperature-correct” F508del. The cells were subsequently rinsed 3× with Krebs Ringers solution and loaded with the voltage-sensitive dyes. To activate F508del, 10 μM forskolin and the CFTR potentiator, genistein (20 μM), were added along with Cl^−-free medium to each well. The addition of Cl^−-free medium promoted Cl^− efflux in response to F508del activation and the resulting membrane depolarization was optically monitored using the FRET-based voltage-sensor dyes.
• Bath Solution #1: (in mM) NaCl 160, KCl 4.5, CaCl2 2, MgCl2 1, HEPES 10, pH 7.4 with NaOH. • Chloride-free bath solution: Chloride salts in Bath Solution #1 (above) are substituted with gluconate salts. • CC2-DMPE: Prepared as a 10 mM stock solution in DMSO and stored at −20° C. • DiSBAC2(3): Prepared as a 10 mM stock in DMSO and stored at −20° C. Cell Culture
NIH3T3 mouse fibroblasts stably expressing F508del are used for optical measurements of membrane potential. The cells are maintained at 37° C. in 5% CO2 and 90% humidity in Dulbecco's modified Eagle's medium supplemented with 2 mM glutamine, 10% fetal bovine serum, 1×NEAA, β-ME, 1× pen/strep, and 25 mM HEPES in 175 cm^2 culture flasks. For all optical assays, the cells were seeded at 30,000/well in 384-well matrigel-coated plates and cultured for 2 hrs at 37° C. before culturing at 27° C. for 24 hrs for the potentiator assay. For the correction assays, the cells are cultured at 27° C. or 37° C. with and without compounds for 16-24 hours.

T1 sequence (P13569 with tags, fused parts or gaps DEL508-508): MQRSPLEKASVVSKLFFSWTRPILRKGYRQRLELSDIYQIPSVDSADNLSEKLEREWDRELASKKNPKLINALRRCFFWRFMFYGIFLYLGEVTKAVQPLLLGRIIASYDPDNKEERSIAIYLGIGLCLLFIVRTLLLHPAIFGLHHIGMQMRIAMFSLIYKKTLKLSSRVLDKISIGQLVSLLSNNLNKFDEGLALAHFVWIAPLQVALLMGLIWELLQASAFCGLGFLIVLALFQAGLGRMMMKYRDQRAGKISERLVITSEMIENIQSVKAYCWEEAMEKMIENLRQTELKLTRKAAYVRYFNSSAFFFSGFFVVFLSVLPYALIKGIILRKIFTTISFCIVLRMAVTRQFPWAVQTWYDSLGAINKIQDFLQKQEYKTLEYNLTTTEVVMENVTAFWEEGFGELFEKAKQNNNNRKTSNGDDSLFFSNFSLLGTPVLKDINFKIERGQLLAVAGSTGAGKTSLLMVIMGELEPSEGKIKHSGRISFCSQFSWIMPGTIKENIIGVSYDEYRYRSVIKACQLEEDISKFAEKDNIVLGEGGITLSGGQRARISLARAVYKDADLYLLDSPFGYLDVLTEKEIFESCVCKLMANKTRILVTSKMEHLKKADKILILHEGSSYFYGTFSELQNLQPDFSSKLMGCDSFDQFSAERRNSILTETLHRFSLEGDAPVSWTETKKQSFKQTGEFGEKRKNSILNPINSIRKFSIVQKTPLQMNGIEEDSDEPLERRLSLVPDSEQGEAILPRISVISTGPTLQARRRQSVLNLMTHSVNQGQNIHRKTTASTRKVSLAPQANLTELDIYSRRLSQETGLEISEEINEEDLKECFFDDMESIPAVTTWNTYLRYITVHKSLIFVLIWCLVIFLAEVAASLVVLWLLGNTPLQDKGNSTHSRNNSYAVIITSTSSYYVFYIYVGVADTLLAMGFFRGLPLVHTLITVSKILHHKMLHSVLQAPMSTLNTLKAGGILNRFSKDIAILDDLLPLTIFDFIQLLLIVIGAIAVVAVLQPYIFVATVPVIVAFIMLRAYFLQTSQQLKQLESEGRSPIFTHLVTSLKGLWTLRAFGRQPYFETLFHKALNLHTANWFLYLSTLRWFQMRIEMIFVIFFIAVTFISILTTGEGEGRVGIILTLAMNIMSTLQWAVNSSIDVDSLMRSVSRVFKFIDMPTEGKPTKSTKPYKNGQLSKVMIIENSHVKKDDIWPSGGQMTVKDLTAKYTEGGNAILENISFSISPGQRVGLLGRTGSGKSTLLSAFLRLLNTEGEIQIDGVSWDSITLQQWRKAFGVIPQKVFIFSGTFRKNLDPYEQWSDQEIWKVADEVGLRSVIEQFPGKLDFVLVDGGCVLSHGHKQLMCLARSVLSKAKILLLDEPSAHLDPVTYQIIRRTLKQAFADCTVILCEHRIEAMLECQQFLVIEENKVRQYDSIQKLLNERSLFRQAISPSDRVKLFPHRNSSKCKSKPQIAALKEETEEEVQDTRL

SMILES	EC30
Cc1cc(C)c(Cn2c(C(=O)NS(=O)(=O)c3ccncc3)cc3ccc(Cl)cc32)c(C)c1 [Compound 24, 6-chloro-N-(4-pyridylsulfonyl)-1-[(2,4,6-trimethylphenyl)methyl]indole-2-carboxamide]	++ (“++” means between 3 uM and 10 uM)
Cc1cc(C)c(Cn2c(C(=O)NS(=O)(=O)c3ccncc3)cc3cc(C)ccc32)c(C)c1 [Compound 25, 5-methyl-N-(4-pyridylsulfonyl)-1-[(2,4,6-trimethylphenyl)methyl]indole-2-carboxamide]	++ (“++” means between 3 uM and 10 uM)
Cc1cc(C)c(-c2nc(C(C)(C)C)ccc2C(=O)NS(=O)(=O)c2cccc(N)c2)c(C)c1 [Compound 26, N-(3-aminophenyl)sulfonyl-6-tert-butyl-2-(2,4,6-trimethylphenyl)pyridine-3-carboxamide]	++ (“++” means between 3 uM and 10 uM)
Cc1cccc(C)c1Cn1nc(-c2ccc(Cl)cc2)cc1C(=O)NS(=O)(=O)c1ccccc1 [Compound 28, N-(benzenesulfonyl)-5-(4-chlorophenyl)-2-[(2,6-dimethylphenyl)methyl]pyrazole-3-carboxamide]	+++ (“+++” means <3 uM)
Cc1cc(C)c(CN2Cc3ccccc3C2C(=O)NS(=O)(=O)c2cc(N)ccn2)c(C)c1 (stereo not shown) [Compound 32, N-[(4-amino-2-pyridyl)sulfonyl]-2-[(2,4,6-trimethylphenyl)methyl]isoindoline-1-carboxamide]	++ (“++” means between 3 uM and 10 uM)
Cc1cc(C)c(Cn2c(C(=O)NS(=O)(=O)c3ccccc3)cc3cc(F)ccc32)c(C)c1 [Compound 33, N-(benzenesulfonyl)-5-fluoro-1-[(2,4,6-trimethylphenyl)methyl]indole-2-carboxamide]	+++ (“+++” means <3 uM)
COc1cccc(S(=O)(=O)NC(=O)c2ccc(C(C)(C)C)nc2Oc2c(C)cc(C)cc2C)n1 [Compound 34, 6-tert-butyl-N-[(6-methoxy-2-pyridyl)sulfonyl]-2-(2,4,6-trimethylphenoxy)pyridine-3-carboxamide]	+++ (“+++” means <3 uM)
CC(C)(C)c1cc(C(=O)NS(=O)(=O)c2ccccc2)n(Cc2cc(C(F)(F)F)ccc2F)n1 [Compound 35, N-(benzenesulfonyl)-5-tert-butyl-2-[[2-fluoro-5-(trifluoromethyl)phenyl]methyl]pyrazole-3-carboxamide]	+++ (“+++” means <3 uM)
COc1cccc2c1cc(C(=O)NS(=O)(=O)c1ccncc1)n2Cc1c(C)cc(C)cc1C [Compound 36, 4-methoxy-N-(4-pyridylsulfonyl)-1-[(2,4,6-trimethylphenyl)methyl]indole-2-carboxamide]	+++ (“+++” means <3 uM)
COc1cc(-c2cc(C(=O)NS(=O)(=O)c3ccccc3)n(Cc3c(C)cccc3C)n2)ccc1Cl [Compound 37, N-(benzenesulfonyl)-5-(4-chloro-3-methoxy-phenyl)-2-[(2,6-dimethylphenyl)methyl]pyrazole-3-carboxamide]	+++ (“+++” means <3 uM)
Cc1cc(C)c(Cn2c(C(=O)NS(=O)(=O)c3ccncc3)cc3ccc(C)cc32)c(C)c1 [Compound 38, 6-methyl-N-(4-pyridylsulfonyl)-1-[(2,4,6-trimethylphenyl)methyl]indole-2-carboxamide]	+++ (“+++” means <3 uM)
COc1ccccc1-c1cc(C(=O)NS(=O)(=O)c2cccc(N)c2)n(C(C)c2ccccc2)n1 (stereo not shown) [Compound 40, N-(3-aminophenyl)sulfonyl-5-(2-methoxyphenyl)-2-(1-phenylethyl)pyrazole-3-carboxamide]	+++ (“+++” means <3 uM)
Cc1cc(C)c(Cn2nc(OCc3ccccc3)cc2C(=O)NS(=O)(=O)c2cccc(N)c2)c(C)c1 [Compound 42, N-(3-aminophenyl)sulfonyl-5-benzyloxy-2-[(2,4,6-trimethylphenyl)methyl]pyrazole-3-carboxamide]	++ (“++” means between 3 uM and 10 uM)
COc1ccc(-c2cc(C(=O)NS(=O)(=O)c3ccccc3)n(Cc3c(C)cccc3C)n2)cc1F [Compound 43, N-(benzenesulfonyl)-2-[(2,6-dimethylphenyl)methyl]-5-(3-fluoro-4-methoxy-phenyl)pyrazole-3-carboxamide]	+++ (“+++” means <3 uM)
COc1cccnc1S(=O)(=O)NC(=O)c1cc(C(C)(C)C)nn1Cc1c(C)cc(C)cc1C [Compound 44, 5-tert-butyl-N-[(3-methoxy-2-pyridyl)sulfonyl]-2-[(2,4,6-trimethylphenyl)methyl]pyrazole-3-carboxamide]	++ (“++” means between 3 uM and 10 uM)
Cc1cc(C)c(CN2Cc3ccccc3C2C(=O)NS(=O)(=O)c2ccccn2)c(C)c1 (stereo not shown) [Compound 48, N-(2-pyridylsulfonyl)-2-[(2,4,6-trimethylphenyl)methyl]isoindoline-1-carboxamide]	++ (“++” means between 3 uM and 10 uM)
COc1ccc(-c2cc(C(=O)NS(=O)(=O)c3ccccc3)n(Cc3c(C)cccc3C)n2)cc1 [Compound 49, N-(benzenesulfonyl)-2-[(2,6-dimethylphenyl)methyl]-5-(4-methoxyphenyl)pyrazole-3-carboxamide]	+++ (“+++” means <3 uM)
CCc1cccc(S(=O)(=O)NC(=O)c2ccc(C(C)(C)C)nc2-c2ccc(C)cc2)c1 [Compound 50, 6-tert-butyl-N-(3-ethylphenyl)sulfonyl-2-(p-tolyl)pyridine-3-carboxamide]	+++ (“+++” means <3 uM)

Results, then the molecule that gave them:

EC30	SMILES
++ (“++” means between 3 uM and 10 uM)	Cc1cc(C)c(Cn2c(C(=O)NS(=O)(=O)c3cc(N)ccn3)cc3ccccc32)c(C)c1 [Compound 23, N-[(4-amino-2-pyridyl)sulfonyl]-1-[(2,4,6-trimethylphenyl)methyl]indole-2-carboxamide]
+++ (“+++” means <3 uM)	COc1ccc(F)cc1-c1cc(C(=O)NS(=O)(=O)c2ccccc2)n(Cc2c(C)cccc2C)n1 [Compound 27, N-(benzenesulfonyl)-2-[(2,6-dimethylphenyl)methyl]-5-(5-fluoro-2-methoxy-phenyl)pyrazole-3-carboxamide]
+++ (“+++” means <3 uM)	CCOc1ccc(-c2cc(C(=O)NS(=O)(=O)c3ccccc3)n(Cc3c(C)cccc3C)n2)cc1 [Compound 29, N-(benzenesulfonyl)-2-[(2,6-dimethylphenyl)methyl]-5-(4-ethoxyphenyl)pyrazole-3-carboxamide]
+++ (“+++” means <3 uM)	CCc1cccc2c1CN(Cc1c(C)cc(C)cc1C)C2C(=O)NS(=O)(=O)c1cccc(N)c1 (stereo not shown) [Compound 30, N-(3-aminophenyl)sulfonyl-4-ethyl-2-[(2,4,6-trimethylphenyl)methyl]isoindoline-1-carboxamide]
++ (“++” means between 3 uM and 10 uM)	Cc1cccc(-c2nc(C(C)(C)C)ccc2C(=O)NS(=O)(=O)c2cccc(N)n2)c1 [Compound 31, N-[(6-amino-2-pyridyl)sulfonyl]-6-tert-butyl-2-(m-tolyl)pyridine-3-carboxamide]
++ (“++” means between 3 uM and 10 uM)	Cc1cc(C)c(Cn2nc(C(C)(C)C)cc2C(=O)NS(=O)(=O)c2cccc(CO)c2)c(C)c1 [Compound 39, 5-tert-butyl-N-[3-(hydroxymethyl)phenyl]sulfonyl-2-[(2,4,6-trimethylphenyl)methyl]pyrazole-3-carboxamide]
+++ (“+++” means <3 uM)	Cc1cc(C)c(Oc2nc(C(C)(C)C)ccc2C(=O)NS(=O)(=O)c2cn(C)nc2N)c(C)c1 [Compound 41, N-(3-amino-1-methyl-pyrazol-4-yl)sulfonyl-6-tert-butyl-2-(2,4,6-trimethylphenoxy)pyridine-3-carboxamide]
+++ (“+++” means <3 uM)	Cc1cc(C)c(Cn2nc(C(C)(C)C)cc2C(=O)NS(=O)(=O)c2ccccc2)c(C)c1 [Compound 45, N-(benzenesulfonyl)-5-tert-butyl-2-[(2,4,6-trimethylphenyl)methyl]pyrazole-3-carboxamide]
++ (“++” means between 3 uM and 10 uM)	CC(C)(C)c1ccc(C(=O)NS(=O)(=O)c2cccc(N)c2)c(-c2ccc(F)cc2)n1 [Compound 46, N-(3-aminophenyl)sulfonyl-6-tert-butyl-2-(4-fluorophenyl)pyridine-3-carboxamide]
+++ (“+++” means <3 uM)	Cc1cc(C)c(Oc2nc(C(C)(C)C)ccc2C(=O)NS(=O)(=O)c2cccc(O)c2)c(C)c1 [Compound 47, 6-tert-butyl-N-(3-hydroxyphenyl)sulfonyl-2-(2,4,6-trimethylphenoxy)pyridine-3-carboxamide]
